In EP4417602A1, “SUBSTITUTED PYRAZOLE CARBOXAMIDES, SALTS THEREOF AND THEIR USE AS HERBICIDALLY ACTIVE SUBSTANCES” (Bayer AG, priority 2023, dated 2024):

Each compound was assayed on DIGSA (assay: A. Herbicidal pre-emergence action on harmful plants (Tables A)). Details: application rate 80 g/ha; Table A12c.
Type: in vivo, Digitaria sanguinalis
Description: (§1) Seeds of mono- and dicotyledonous weed plants were sown in plastic pots (double sowings with one species of mono- and one species of dicotyledonous weed plants per pot), in sandy loam, and covered with soil. The compounds according to the invention, formulated in the form of wettable powders (WP) or as emulsifiable concentrates (EC), were applied to the surface of the covering soil as aqueous suspension or emulsion, with the addition of 0.5% of an additive, at an application rate of 6001 of water per hectare (converted). Following treatment, the pots were placed in a greenhouse and kept under optimum growth conditions for the test plants. The visual grading of the damage to the test plants was carried out after ca. 3 weeks in comparison to untreated controls (herbicidal effect in percent (%): 100% effect = plants have died off, 0% effect = as control plants). Tables A1 to A12, below, show the effects of selected compounds of the general formula (I) according to table 1 on various harmful plants and an application rate corresponding to 1280 g/ha or below obtained by the experimental procedure mentioned above. Table A1: pre-emergence activity at 1280g/ha against ABUTH in %

Row | SMILES | pre-emergence activity against DIGSA [%]
1 | COCc1nn(C)cc1C(=O)N1CCCC1Cc1c(F)cccc1Cl (single isomer, unassigned) [Example I-087] | 90

Same assay, conditions: application rate 320 g/ha; Table A12b

Row | SMILES | pre-emergence activity against DIGSA [%]
2 | C=CCn1cc(C(=O)N2CCCC2Cc2ccccc2F)c(COC)n1 (racemic) [Example I-039] | 90
3 | COCc1nn(C)cc1C(=O)N1CCCC1Cc1c(F)cccc1Cl (single isomer, unassigned) [Example I-087] | 100

Same assay, conditions: application rate 1280 g/ha; Table A12a

Row | SMILES | pre-emergence activity against DIGSA [%]
4 | C=CCn1cc(C(=O)N2CCCC2Cc2ccccc2F)c(COC)n1 (racemic) [Example I-039] | 90
5 | COCc1nn(C)cc1C(=O)N1CCCC1Cc1c(F)cccc1Cl (single isomer, unassigned) [Example I-087] | 100

These compounds were tested on SETVI in the same assay as above. Details: application rate 80 g/ha; visual grading after ca. 3 weeks vs untreated controls; 100% = plants have died off, 0% = as control plants.
Type: in vivo, Setaria viridis
Description: as §1

Row | SMILES | pre-emergence activity against SETVI [%]
6 | COCc1nn(C)cc1C(=O)N1CCCC1Cc1c(F)cccc1Cl (single isomer, unassigned) [Example I-087] | 100

Same assay, conditions: application rate 320 g/ha; visual grading after ca. 3 weeks vs untreated controls; 100% = plants have died off, 0% = as control plants

Row | SMILES | pre-emergence activity against SETVI [%]
7 | C=CCn1cc(C(=O)N2CCCC2Cc2ccccc2F)c(COC)n1 (racemic) [Example I-039] | 90
8 | COCc1nn(C)cc1C(=O)N1CCCC1Cc1c(F)cccc1Cl (single isomer, unassigned) [Example I-087] | 100

Same assay, conditions: application rate 1280 g/ha; visual grading after ca. 3 weeks vs untreated controls; 100% = plants have died off, 0% = as control plants

Row | SMILES | pre-emergence activity against SETVI [%]
9 | C=CCn1cc(C(=O)N2CCCC2Cc2ccccc2F)c(COC)n1 (racemic) [Example I-039] | 90
10 | COCc1nn(C)cc1C(=O)N1CCCC1Cc1c(F)cccc1Cl (single isomer, unassigned) [Example I-087] | 100

What follows are compounds tested on STEME (assay: B. Herbicidal post-emergence action on harmful plants (Tables B)). Details: application rate 1280 g/ha; Table B6.
Type: in vivo, Stellaria media
Protocol: (§2) Seeds of mono- and dicotyledonous weed plants were placed in plastic pots in sandy loam soil (doubly sown with in each case one species of mono- or dicotyledonous weed plants per pot), covered with soil and cultivated in a greenhouse under controlled growth conditions. 2 to 3 weeks after sowing, the test plants were treated at the one-leaf stage. The compounds of the invention, formulated in the form of wettable powders (WP) or as emulsion concentrates (EC), were applied onto the green parts of the plants as aqueous suspension or emulsion with addition of 0.5% additive at a water application rate of 600 liters per hectare (converted). After the test plants had been kept in the greenhouse under optimum growth conditions for about 3 weeks, the activity of the preparations was rated visually in comparison to untreated controls. For example, 100% activity = the plants have died, 0% activity = like control plants. Tables B1 to B12, below, show the effects of selected compounds of the general formula (I) according to table 1 on various harmful plants and an application rate corresponding to 1280 g/ha or below obtained by the experimental procedure mentioned above. Table B1a: post-emergence activity at 1280g/ha against ABUTH in %

Row | SMILES | post-emergence activity against STEME [%]
11 | COCc1nn(C)cc1C(=O)N1CCCC1Cc1c(F)cccc1Cl (single isomer, unassigned) [Example I-087] | 90

Each compound was assayed on LOLRI (assay: A. Herbicidal pre-emergence action on harmful plants (Tables A)). Details: application rate 80 g/ha; visual grading after ca. 3 weeks vs untreated controls; 100% = plants have died off, 0% = as control plants.
Type: in vivo, Lolium rigidum
Description: as §1

Row | SMILES | pre-emergence activity against LOLRI [%]
12 | COCc1nn(C)cc1C(=O)N1CCCC1Cc1c(F)cccc1Cl (single isomer, unassigned) [Example I-087] | 100

Same assay, conditions: application rate 320 g/ha; visual grading after ca. 3 weeks vs untreated controls; 100% = plants have died off, 0% = as control plants

Row | SMILES | pre-emergence activity against LOLRI [%]
13 | C=CCn1cc(C(=O)N2CCCC2Cc2ccccc2F)c(COC)n1 (racemic) [Example I-039] | 90
14 | COCc1nn(C)cc1C(=O)N1CCCC1Cc1c(F)cccc1Cl (single isomer, unassigned) [Example I-087] | 100

Same assay, conditions: application rate 1280 g/ha; visual grading after ca. 3 weeks vs untreated controls; 100% = plants have died off, 0% = as control plants

Row | SMILES | pre-emergence activity against LOLRI [%]
15 | C=CCn1cc(C(=O)N2CCCC2Cc2ccccc2F)c(COC)n1 (racemic) [Example I-039] | 90
16 | COCc1nn(C)cc1C(=O)N1CCCC1Cc1c(F)cccc1Cl (single isomer, unassigned) [Example I-087] | 100

What follows are compounds tested on DIGSA (assay: B. Herbicidal post-emergence action on harmful plants (Tables B)). Details: application rate 1280 g/ha; Table B12a.
Type: in vivo, Digitaria sanguinalis
Protocol: as §2

Row | SMILES | post-emergence activity against DIGSA [%]
17 | C=CCn1cc(C(=O)N2CCCC2Cc2ccccc2F)c(COC)n1 (racemic) [Example I-039] | 90

Each compound was assayed on STEME (assay: A. Herbicidal pre-emergence action on harmful plants (Tables A)). Details: application rate 320 g/ha; visual grading after ca. 3 weeks vs untreated controls; 100% = plants have died off, 0% = as control plants.
Type: in vivo, Stellaria media
Description: as §1

Row | SMILES | pre-emergence activity against STEME [%]
18 | COCc1nn(C)cc1C(=O)N1CCCC1Cc1c(F)cccc1Cl (single isomer, unassigned) [Example I-087] | 90

Same assay, conditions: application rate 1280 g/ha; visual grading after ca. 3 weeks vs untreated controls; 100% = plants have died off, 0% = as control plants

Row | SMILES | pre-emergence activity against STEME [%]
19 | C=CCn1cc(C(=O)N2CCCC2Cc2ccccc2F)c(COC)n1 (racemic) [Example I-039] | 90
20 | COCc1nn(C)cc1C(=O)N1CCCC1Cc1c(F)cccc1Cl (single isomer, unassigned) [Example I-087] | 90

The compounds below were run on POAAN in the same assay as above. Details: application rate 80 g/ha; Table A7c.
Type: in vivo, Poa annua
Description: as §1

Row | SMILES | pre-emergence activity against POAAN [%]
21 | C=CCn1cc(C(=O)N2CCCC2Cc2ccccc2F)c(COC)n1 (racemic) [Example I-039] | 90
22 | COCc1nn(C)cc1C(=O)N1CCCC1Cc1c(F)cccc1Cl (single isomer, unassigned) [Example I-087] | 100

Same assay, conditions: application rate 320 g/ha; Table A7b

Row | SMILES | pre-emergence activity against POAAN [%]
23 | C=CCn1cc(C(=O)N2CCCC2Cc2ccccc2F)c(COC)n1 (racemic) [Example I-039] | 100
24 | COCc1nn(C)cc1C(=O)N1CCCC1Cc1c(F)cccc1Cl (single isomer, unassigned) [Example I-087] | 100

Same assay, conditions: application rate 1280 g/ha; visual grading after ca. 3 weeks vs untreated controls; 100% = plants have died off, 0% = as control plants

Row | SMILES | pre-emergence activity against POAAN [%]
25 | C=CCn1cc(C(=O)N2CCCC2Cc2ccccc2F)c(COC)n1 (racemic) [Example I-039] | 100
26 | COCc1nn(C)cc1C(=O)N1CCCC1Cc1c(F)cccc1Cl (single isomer, unassigned) [Example I-087] | 100

What follows are compounds tested on ECHCG (assay: B. Herbicidal post-emergence action on harmful plants (Tables B)). Details: application rate 1280 g/ha; Table B2a.
Type: in vivo, Echinochloa crus-galli
Protocol: as §2

Row | SMILES | post-emergence activity against ECHCG [%]
27 | C=CCn1cc(C(=O)N2CCCC2Cc2ccccc2F)c(COC)n1 (racemic) [Example I-039] | 90

Each compound was assayed on AMARE in the same assay as above. Details: application rate 1280 g/ha; Table B8.
Type: in vivo, Amaranthus retroflexus
Protocol: as §2

Row | SMILES | post-emergence activity against AMARE [%]
28 | COCc1nn(C)cc1C(=O)N1CCCC1Cc1c(F)cccc1Cl (single isomer, unassigned) [Example I-087] | 90

The compounds below were run on ECHCG (assay: A. Herbicidal pre-emergence action on harmful plants (Tables A)). Details: application rate 80 g/ha; visual grading after ca. 3 weeks vs untreated controls; 100% = plants have died off, 0% = as control plants.
Type: in vivo, Echinochloa crus-galli
Description: as §1

Row | SMILES | pre-emergence activity against ECHCG [%]
29 | COCc1nn(C)cc1C(=O)N1CCCC1Cc1c(F)cccc1Cl (single isomer, unassigned) [Example I-087] | 90

Same assay, conditions: application rate 320 g/ha; visual grading after ca. 3 weeks vs untreated controls; 100% = plants have died off, 0% = as control plants

Row | SMILES | pre-emergence activity against ECHCG [%]
30 | COCc1nn(C)cc1C(=O)N1CCCC1Cc1c(F)cccc1Cl (single isomer, unassigned) [Example I-087] | 100

Same assay, conditions: application rate 1280 g/ha; visual grading after ca. 3 weeks vs untreated controls; 100% = plants have died off, 0% = as control plants

Row | SMILES | pre-emergence activity against ECHCG [%]
31 | C=CCn1cc(C(=O)N2CCCC2Cc2ccccc2F)c(COC)n1 (racemic) [Example I-039] | 90
32 | COCc1nn(C)cc1C(=O)N1CCCC1Cc1c(F)cccc1Cl (single isomer, unassigned) [Example I-087] | 100

The compounds below were run on AMARE in the same assay as above. Details: application rate 320 g/ha; Table A8b.
Type: in vivo, Amaranthus retroflexus
Description: as §1

Row | SMILES | pre-emergence activity against AMARE [%]
33 | COCc1nn(C)cc1C(=O)N1CCCC1Cc1c(F)cccc1Cl (single isomer, unassigned) [Example I-087] | 90

Same assay, conditions: application rate 1280 g/ha; visual grading after ca. 3 weeks vs untreated controls; 100% = plants have died off, 0% = as control plants

Row | SMILES | pre-emergence activity against AMARE [%]
34 | COCc1nn(C)cc1C(=O)N1CCCC1Cc1c(F)cccc1Cl (single isomer, unassigned) [Example I-087] | 90

These compounds were tested on ALOMY in the same assay as above. Details: application rate 1280 g/ha; Table A9a.
Type: in vivo, Alopecurus myosuroides
Description: as §1

Row | SMILES | pre-emergence activity against ALOMY [%]
35 | C=CCn1cc(C(=O)N2CCCC2Cc2ccccc2F)c(COC)n1 (racemic) [Example I-039] | 90
36 | COCc1nn(C)cc1C(=O)N1CCCC1Cc1c(F)cccc1Cl (single isomer, unassigned) [Example I-087] | 90

Each compound was assayed on MATIN in the same assay as above. Details: application rate 320 g/ha; visual grading after ca. 3 weeks vs untreated controls; 100% = plants have died off, 0% = as control plants.
Type: in vivo, Matricaria inodora
Description: as §1

Row | SMILES | pre-emergence activity against MATIN [%]
37 | COCc1nn(C)cc1C(=O)N1CCCC1Cc1c(F)cccc1Cl (single isomer, unassigned) [Example I-087] | 90

Same assay, conditions: application rate 1280 g/ha; visual grading after ca. 3 weeks vs untreated controls; 100% = plants have died off, 0% = as control plants

Row | SMILES | pre-emergence activity against MATIN [%]
38 | C=CCn1cc(C(=O)N2CCCC2Cc2ccccc2F)c(COC)n1 (racemic) [Example I-039] | 90
39 | COCc1nn(C)cc1C(=O)N1CCCC1Cc1c(F)cccc1Cl (single isomer, unassigned) [Example I-087] | 90
